Assays:
[1] = system: tyrosinase activity in mouse melanoma cells; assay: Tyrosinase responses in mouse melanoma cells (Table 6); assay type: cell-based
Description: (§1) The mouse melanoma cell lines used to study the effects of lysosomotropic agents herein were the Cloudman S91 cell line (ATCC no. CCL 53.1) and two subclones of this line developed in our laboratory, the amelanotic line, AM-7, and a melanotic line, MEL-11A. All melanoma cell lines were grown in Ham's F-10 nutrient medium supplemented with 10% horse serum, penicillin (100 units/ml), and streptomycin (100 μg/ml). The normal human melanocyte cell strains used in this study were derived from foreskins of either neonares or from boys 2-6 years old. Human melanocyte cultures were grown in Ham's F-10 nutrient medium supplemented with 10% horse serum, 5% fetal bovine serum (FBS), 32 nM TPA (12-O-tetradecanoylphorbol 13-acetate), 10^-4 M IBMX(3-isobutyl-1-methylxanthine), penicillin (100 units/ml), and streptomycin (100 μg/ml).
To determine tyrosinase activity in situ in either melanoma cells or in human melanocyte cultures, the tyrosine hydroxylase activity of the enzyme was determined. Cells were seeded into 60-mm culture dishes at 2×10^5 cells/dish and allowed to attach overnight. The medium was then exchanged for the appropriate growth medium supplemented with 1 μCi/ml of [^3 H]tyrosine (L-ring-3,5-^3 H]-tyrosine, DuPont New England Nuclear), and with hormones, where indicated. Cells were grown in labeled medium for 24 hours, and at this time, the medium was removed and assayed for the presence of ^3 H2 O using the charcoal absorption method of Pomerantz. Tyrosinase activity in cell homogenates was determined by sonicating cell pellets in 0.1-M sodium phosphate buffer (pH 6.8) and then incubating 50-μl aliquots in 0.5 ml of a reaction mixture containing 0.1-mM tyrosine, 2 μCi/ml of [^3 H]tyrosine, 0.1-mM L-DOPA (dihydroxyphenylalanine), and 0.1 mM PMSF (phenylmethylsulfonyl fluoride) at 37° C. for 2 hours. Reactions were terminated by the addition of 1 ml of charcoal (10% w/v in 0.1-N HCl). Samples were centrifuged, and the supernatants removed for determination of the amount of ^3 H2 O produced. […]

[2] = system: tyrosinase activity in human melanocytes; assay: Tyrosinase responses in human melanocytes (Table 6); assay type: cell-based
Description: as §1
To determine tyrosinase activity in situ in either melanoma cells or in human melanocyte cultures, the tyrosine hydroxylase activity of the enzyme was determined. Cells were seeded into 60-mm culture dishes at 2×10^5 cells/dish and allowed to attach overnight. The medium was then exchanged for the appropriate growth medium supplemented with 1 μCi/ml of [^3 H]tyrosine (L-ring-3,5-^3 H]-tyrosine, DuPont New England Nuclear), and with hormones, where indicated. Cells were grown in labeled medium for 24 hours, and at this time, the medium was removed and assayed for the presence of ^3 H2 O using the charcoal absorption method of Pomerantz. Tyrosinase activity in cell homogenates was determined by sonicating cell pellets in 0.1-M sodium phosphate buffer (pH 6.8) and then incubating 50-μl aliquots in 0.5 ml of a reaction mixture containing 0.1-mM tyrosine, 2 μCi/ml of [^3 H]tyrosine, 0.1-mM L-DOPA (dihydroxyphenylalanine), and 0.1 mM PMSF (phenylmethylsulfonyl fluoride) at 37° C. for 2 hours. Reactions were terminated by the addition of 1 ml of charcoal (10% w/v in 0.1-N HCl). Samples were centrifuged, and the supernatants removed for determination of the amount of ^3 H2 O produced.
Hormone responsiveness in human melanocyte cell cultures were examined (for these studies, melanocytes derived from skin type III were used). […] Tyrosinase activity and melanin content typically double with a 48-hour exposure to IBMX. […] The steroid hormones, for the most part, caused little, if any, change in tyrosinase activity at the concentrations used.

[3] = system: tyrosinase activity in mouse melanoma cells; details: e.g., 10^-5 M; footnote b of Table 6; cited from earlier work
[4] = system: melanin in human melanocytes; assay: Melanin content in human melanocytes; assay type: cell-based; details: 48-hour exposure; IBMX
Description: as §1
The amount of melanin in melanoma cells or in melanocytes was determined by incubating cell pellets in 2 ml of 1-N NaOH for 48 hours at 37° C. and then measuring the solubilized melanin at 400 nm.
Dose/response parameters for ammonium chloride action were determined. […] Since tyrosinase is the rate-limiting enzyme for melanin synthesis, the stimulation of this enzyme by ammonium chloride should lead to increased melanin content of stimulated cells. […] Ammonium chloride increased tyrosinase activity in melanocytes from white-skinned individuals twenty-fold within 24 hours and by this time melanin contents had increased two-fold. Two other lysosomotropic agents, monensin and nigericin, were tested for their effects on tyrosinase activity. […] Thus, lysosomotropic agents have the ability to stimulate tyrosinase activity and melanin production in human melanocytes derived from white-skinned individuals, and to reduce melanin production in melanocytes from black-skinned people.

[5] = system: tyrosinase activity in mouse melanoma cells; details: Cloudman S91; cited from earlier work
[6] = system: tyrosinase activity in human foreskin organ cultures; assay: Tyrosinase activity in human foreskin organ cultures (tyrosine hydroxylase assay); assay type: cell-based; details: Table 2; 0.1 mM; 72 h; control 3.15 ± 0.1; triplicate ± s.d.
Description: At the time of surgical removal, human foreskins were placed on sterile gauze saturated with sterile IMDM medium (Iscove's modified Dulbecco's medium purchased from Irvine Scientific of Santa Ana, Calif.) for transportation from the Hospital nursery to the laboratory. The tissues were rinsed in sterile IMDM medium containing 500 U/ml penicillin and 500 μg/ml of streptomycin for 5 minutes. Under sterile conditions, an intradermal injection of medium was performed from the dermal side prior to dissection of the mucous membrane and lower dermis by scissors to make the thickness of skins equal. The foreskins were then cut into approximately 3 mm×3 mm squares and either frozen at -75° C. or placed in organ culture as described hereafter.
The organ culture medium was prepared from IMDM with glutamine supplemented with 20% horse serum, 5% fetal bovine serum, 100 U/ml penicillin, 100 μg/ml streptomycin and 3 mg/ml sodium bicarbonate. The serums were obtained from Hyclone Lab. Inc. of Logan Utah. Culture units were prepared by placing sterilized filters (AP20 025 00, Millipore) over sterilized support screens ([…] Swinnex filter support screens, Millipore) in the wells of 6-well tissue culture plates (Falcon 3046) with medium added to the wells such that the skin support screens floated and the filter absorbed the medium from beneath. The tissue samples were placed, epidermis up, on top of the saturated filters and incubated at 37° C. in a 5% CO2 humidified atmosphere. The medium was changed everyday. Harvested cultures were frozen at -75° C.
Tyrosinase activity in human skin organ cultures was determined by measuring the tyrosine hydroxylase activity of the enzyme. The assay measures the production of ^3 H2 O during the conversion of [^3 H]tyrosine to L-DOPA. Weighed skin preparations were incubated in 0.3 ml of a reaction mixture containing 0.01 mM of L-tyrosine, 5-6 uCi/ml of [^3 H]tyrosine and 0.1 mM L-DOPA in 0.1M of pH 6.8 phosphate buffer for 4 hours at 37° C. To terminate the reaction, 1 ml of phosphate buffer was added, the tubes vortexed, and 0.4 ml aliquots removed in triplicate and mixed with an equal volume of Norit SG activated charcoal (10% w/v, in 0.1N HCl). Following centrifugation at 2000×g for 10 min, the supernatants (0.5 ml) were placed in scintillation vials, scintillation fluid added, and vials counted in a TM Analytic 6895 scintillation counter equipped with a DPM processor.
Human foreskins were treated with the compounds shown in Table 1, placed in culture, and incubated for 72 hours. The skins were then assayed for tyrosinase activity with the tyrosine hydroxylase assay method as described herein.
The medium and compounds were changed daily. Tyrosinase activity was determined by measuring the tyrosine hydroxylase activity of the enzyme.
Human foreskin organ cultures were treated with the compounds listed in Table 3 for 3 days and tyrosinase activity determined as described herein. Theophylline was used at 1 mM.

[7] = system: tyrosinase abundance in mouse melanoma cells; details: other studies; cited from earlier work
tyrosinase mRNA = details: three days; melanocyte cultures; cited from earlier work
[8] = system: melanin in human melanocytes; details: three days; melanocyte cultures; cited from earlier work

Tyrosinase Activity ([2]; 48-hour exposure, IBMX)	Compound	Effect on Tyrosinase Activity, Mouse Melanoma ([1]; Table 6, 10^-7 M except IBMX 10^-4 M, theophylline 1 mM, ammonium chloride 10 mM, A23187 not given)	Effect on Tyrosinase Activity, Human Melanocyte ([2]; Table 6, 10^-7 M except IBMX 10^-4 M, theophylline 1 mM, ammonium chloride 10 mM, A23187 not given, melanocytes from skin type III)	effect on tyrosine activity at higher concentrations [3]	melanin content [4]	mimicking of the MSH response [5]	Tyrosinase Activity [6]	response of mouse melanoma cells ([1]; compounds that raise intracellular cAMP levels or MSH)	tyrosinase activity correlates with enzyme abundance [7]	change in amount of tyrosinase mRNA (tyrosinase mRNA)	activity at 100 µM ([2]; Homo sapiens, Melanocyte, Table 6, 10^-7 M except IBMX 10^-4 M, theophylline 1 mM, ammonium chloride 10 mM, A23187 not given, melanocytes from skin type III, read-out: Effect on Tyrosinase Activity, Human Melanocyte)	increase in melanin production [8]
	CC1=C(/C=C/C(C)=C/C=C/C(C)=C/C(=O)O)C(C)(C)CCC1 [Retinoic Acid, all-trans]	Inhibited	Inhibited	stimulate tyrosine activity								
double	CC(C)Cn1c(=O)n(C)c(=O)c2[nH]cnc21 [IBMX, 3-isobutyl-1-methylxanthine]				double	mimicked	7.03 ± 0.49 pmoles ^3 H2 O/hour/mg skin	respond vigorously	correlates with an increase in enzyme abundance	not accompanied by any increase	150 to 200%	fourfold increase

Source: patent US5554359A, “Pigmentation enhancer and method” (priority 1994, dated 1996)
